Drawing on patent US20140045823A1 (Neurocrine Biosciences, Inc., priority 2012, published 2014), this text covers EC50 for 26 compounds.

One may read the EC50 as the concentration at which the effect is half-maximal. Read a low EC50 as an effect from little substance.

SMILES strings stand for the structures.

This experiment has as its target T1, human GPR119 (Homo sapiens, UniProt Q8TDV5).
T1 construct: expression vector for human GPR119 cDNA (Acc. No. NP_848566); expressed in transfected cells; Min-6/hGPR119
T1 sequence (Q8TDV5 1-335): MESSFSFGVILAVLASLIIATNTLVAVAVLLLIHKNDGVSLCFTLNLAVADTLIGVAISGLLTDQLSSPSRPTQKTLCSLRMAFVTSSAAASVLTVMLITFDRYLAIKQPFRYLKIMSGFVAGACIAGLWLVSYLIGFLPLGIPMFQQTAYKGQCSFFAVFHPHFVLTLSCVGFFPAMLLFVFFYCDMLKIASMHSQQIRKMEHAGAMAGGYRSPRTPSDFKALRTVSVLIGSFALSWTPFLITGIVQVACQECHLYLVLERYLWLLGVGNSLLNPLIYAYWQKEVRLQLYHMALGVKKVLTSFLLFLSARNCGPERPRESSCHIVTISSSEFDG
Nature of the experiment: AlphaScreen cAMP assay in MIN6 cells stably transfected with human GPR119. It counts as cell-based. Conditions: Min-6/hGPR119 cells, 45 min at room temperature. The procedure:
The compounds of formula I according to the invention modulate the activity of the G-protein-coupled receptor GPR119. The effect of the compounds on the activation of GPR119 and on the stimulation of intracellular cAMP concentration is determined using the AlphaScreen cAMP Assay Kit (Cat. No. #6760625R) made by PerkinElmer.
MIN6 cells [Miyazaki J et al. Endocrinology. 1990 July; 127(1):126-32] are stably transfected with an expression vector for human GPR119 cDNA (Acc. No. NP_848566). Min-6/hGPR119 cells are cultured in DMEM, 10% FBS, 50 μM β-mercaptoethanol, 0.3 mg/mL Geniticin, 2 mM GlutaMAX at 37° C. 5% CO2. For the assay, the cells are seeded in Optiplates (white, 384-well, 160 W—barcoded, TC, sterile with lid, Cat. No. #6007688 (Perkin Elmer); 10000 cells/well; 50 μl). The plates covered with lids are then incubated for 24 hours at 37° C./5% CO2. After the medium is aspirated from the wells completely, 10 μl of the test compound are added, the compounds are diluted using stimulating buffer (140 mM NaCl, 3.6 mM KCl, 0.5 mM NaH2PO4, 0.5 mM MgSO4, 1.5 mM CaCl2, 10 mM Hepes, 5 mM NaHCO3; pH 7.4. 0.5 mM IBMX and 0.1% BSA, the final DMSO concentration is 1%). After 45 minutes incubation at room temperature (approx. 20° C.), the cAMP concentrations are determined using the AlphaScreen cAMP Assay Kit (Cat. No. #6760625R from PerkinElmer).
Background: In Alpha technology, singlet oxygen from a donor bead excites a nearby acceptor bead.
Regarding `CCNC(=O)c1ccc(-c2nc(C(=O)N(C3CC3)C3CCN(C(=O)OC(C)(C)C)CC3)co2)cc1` [Example 26, 4-{Cyclopropyl-[2-(4-ethylcarbamoyl-phenyl)-oxazole-4-carbonyl]-amino}-piperidine-1-carboxylic acid tert-butyl ester], the EC50 came to 360 nM.

Compound `CC(C)(C)OC(=O)N1CCC(N(C(=O)c2coc(-c3cnco3)n2)C2CC2)CC1` [Example 27, 4-[([2,5′]Bioxazolyl-4-carbonyl)-cyclopropyl-amino]-piperidine-1-carboxylic acid tert-butyl ester] displayed an EC50 of 1800 nM.

Turning to `CC(C)(C)OC(=O)N1CCC(N(C(=O)c2coc(-c3ccc(S(C)(=O)=O)c(F)c3)n2)C2CC2)CC1` [Example 28, 4-{Cyclopropyl-[2-(3-fluoro-4-methanesulfonyl-phenyl)-oxazole-4-carbonyl]-amino}-piperidine-1-carboxylic acid tert-butyl ester], the EC50 amounted to 159 nM.

`CC(C)(C)OC(=O)N1CCC(N(C(=O)c2coc(-c3ccc(C#N)cc3)n2)C2CC2)CC1` [Example 29, 4-{[2-(4-Cyano-phenyl)-oxazole-4-carbonyl]-cyclopropyl-amino}-piperidine-1-carboxylic acid tert-butyl ester] returned an EC50 of 118 nM.

Compound `CC(C)(C)OC(=O)N1CCC(N(C(=O)c2cnc(-c3ccc(S(C)(=O)=O)cc3F)o2)C2CC2)CC1` [Example 30, 4-{Cyclopropyl-[2-(2-fluoro-4-methanesulfonyl-phenyl)-oxazole-5-carbonyl]-amino}-piperidine-1-carboxylic acid tert-butyl ester] came in with a concentration for a half-maximal effect (EC50) of 176 nM.

Consider `CC(C)(C)OC(=O)N1CCC(N(C(=O)c2cnc(-c3ccc(C#N)cc3F)o2)C2CC2)CC1` [Example 31, 4-{[2-(4-Cyano-2-fluoro-phenyl)-oxazole-5-carbonyl]-cyclopropyl-amino}-piperidine-1-carboxylic acid tert-butyl ester], for which a half-maximal effect (EC50) was put at 48 nM.

For the compound `CC(C)(C)OC(=O)N1CCC(N(C(=O)c2cnc(-c3ccc(C#N)c(F)c3)o2)C2CC2)CC1` [Example 32, 4-{[2-(4-Cyano-3-fluoro-phenyl)-oxazole-5-carbonyl]-cyclopropyl-amino}-piperidine-1-carboxylic acid tert-butyl ester], a half-maximal response (EC50) required 35 nM.

Regarding `CC(C)(C)OC(=O)N1CCC(N(C(=O)c2cnc(-c3cnco3)o2)C2CC2)CC1` [Example 33, 4-[([2,5′]Bioxazolyl-5-carbonyl)-cyclopropyl-amino]-piperidine-1-carboxylic acid tert-butyl ester], the EC50 was 639 nM.

`CC(C)(C)OC(=O)N1CCC(N(C(=O)c2cnc(-c3ccc(S(C)(=O)=O)c(F)c3)o2)C2CC2)CC1` [Example 34, 4-{Cyclopropyl-[2-(3-fluoro-4-methanesulfonyl-phenyl)-oxazole-5-carbonyl]-amino}-piperidine-1-carboxylic acid tert-butyl ester]: the EC50 turned out to be 86 nM. This EC50 is about 7.4-fold lower than that of the compound before.

Take `CC(C)(C)OC(=O)N1CCC(N(C(=O)c2cnc(-c3ccc(C#N)cc3)o2)C2CC2)CC1` [Example 35, 4-{[2-(4-Cyano-phenyl)-oxazole-5-carbonyl]-cyclopropyl-amino}-piperidine-1-carboxylic acid tert-butyl ester]: a half-maximal response (EC50) required 136 nM.

In turn, `CC(C)(C)OC(=O)N1CCC(N(C(=O)c2ncc(-c3ccc(S(C)(=O)=O)cc3)o2)C2CC2)CC1` [Example 36, 4-{Cyclopropyl-[5-(4-methanesulfonyl-phenyl)-oxazole-2-carbonyl]-amino}-piperidine-1-carboxylic acid tert-butyl ester] displayed a half-maximal effective concentration (EC50) of 358 nM.

Consider `CC(C)(C)OC(=O)N1CCC(N(C(=O)c2ncc(-c3ccc(C#N)cc3)o2)C2CC2)CC1` [Example 37, 4-{[5-(4-Cyano-phenyl)-oxazole-2-carbonyl]-cyclopropyl-amino}-piperidine-1-carboxylic acid tert-butyl ester], for which the EC50 was 142 nM. This EC50 is about 2.5-fold lower than that of the compound before.

`CC(C)(C)OC(=O)N1CCC(N(C(=O)c2cc(-c3ccc(C#N)cc3)on2)C2CC2)CC1` [Example 38, 4-{-[5-(4-Cyano-phenyl)-isoxazole-3-carbonyl]-cyclopropyl-amino}-piperidine-1-carboxylic acid tert-butyl ester] registered an EC50 of 9 nM. This EC50 lies about 16-fold lower than the previous one.

For `CC(C)(C)OC(=O)N1CCC(N(C(=O)c2cc(-c3ccc(C#N)cc3F)on2)C2CC2)CC1` [Example 39, 4-{[5-(4-Cyano-2-fluoro-phenyl)-isoxazole-3-carbonyl]-cyclopropyl-amino}-piperidine-1-carboxylic acid tert-butyl ester], a half-maximal response (EC50) required 3 nM.

With `CC(C)(C)OC(=O)N1CCC(N(C(=O)c2cc(-c3ccc(C#N)c(F)c3)on2)C2CC2)CC1` [Example 40, 4-{[5-(4-Cyano-3-fluoro-phenyl)-isoxazole-3-carbonyl]-cyclopropyl-amino}-piperidine-1-carboxylic acid tert-butyl ester], the midpoint of the response, the EC50, lay at 7 nM.

Turning to `CC(C)(C)OC(=O)N1CCC(N(C(=O)c2cc(-c3ccc(C#N)cc3)no2)C2CC2)CC1` [Example 41, 4-{[3-(4-Cyano-phenyl)-isoxazole-5-carbonyl]-cyclopropyl-amino}-piperidine-1-carboxylic acid tert-butyl ester], the response was half-maximal at 11 nM (EC50).

On to `CC(C)(C)OC(=O)N1CCC(N(C(=O)c2cc(-c3ccc(C#N)cc3F)no2)C2CC2)CC1` [Example 42, 4-{[3-(4-Cyano-2-fluoro-phenyl)-isoxazole-5-carbonyl]-cyclopropyl-amino}-piperidine-1-carboxylic acid tert-butyl ester], for which the response was half-maximal at 2 nM (EC50).

The compound `CC(C)(C)OC(=O)N1CCC(N(C(=O)c2cc(-c3ccc(C#N)c(F)c3)no2)C2CC2)CC1` [Example 43, 4-{[3-(4-Cyano-3-fluoro-phenyl)-isoxazole-5-carbonyl]-cyclopropyl-amino}-piperidine-1-carboxylic acid tert-butyl ester] gave an EC50 of 14 nM. This EC50 is about 7-fold higher than that of the compound before.

`Cc1c(C(=O)N(C2CC2)C2CCN(C(=O)OC(C)(C)C)CC2)noc1-c1ccc(C#N)cc1` [Example 44, 4-{[5-(4-Cyano-phenyl)-4-methyl-isoxazole-3-carbonyl]-cyclopropyl-amino}-piperidine-1-carboxylic acid tert-butyl ester] gave an EC50 of 47 nM.

Take `Cc1c(C(=O)N(C2CC2)C2CCN(C(=O)OC(C)(C)C)CC2)noc1-c1ccc(C#N)c(F)c1` [Example 45, 4-{[5-(4-Cyano-3-fluoro-phenyl)-4-methyl-isoxazole-3-carbonyl]-cyclopropyl-amino}-piperidine-1-carboxylic acid tert-butyl ester]: the EC50 is 25 nM. This EC50 is about 1.9-fold lower than that of the compound before.

The compound `Cc1c(C(=O)N(C2CC2)C2CCN(C(=O)OC(C)(C)C)CC2)noc1-c1ccc(C#N)cc1F` [Example 46, 4-{[5-(4-Cyano-2-fluoro-phenyl)-4-methyl-isoxazole-3-carbonyl]-cyclopropyl-amino}-piperidine-1-carboxylic acid tert-butyl ester] yielded an EC50 of 3 nM.

As to `CC(C)(C)OC(=O)N1CCC(N(C(=O)c2csc(-c3ccc(C#N)cc3)n2)C2CC2)CC1` [Example 47, 4-{[2-(4-Cyano-phenyl)-thiazole-4-carbonyl]-cyclopropyl-amino}-piperidine-1-carboxylic acid tert-butyl ester], the EC50 amounted to 1860 nM.

`Cc1nc(-c2ccc(C#N)cc2F)sc1C(=O)N(C1CC1)C1CCN(C(=O)OC(C)(C)C)CC1` [Example 48, 4-{[2-(4-Cyano-2-fluoro-phenyl)-4-methyl-thiazole-5-carbonyl]-cyclopropyl-amino}-piperidine-1-carboxylic acid tert-butyl ester]: a half-maximal effect (EC50) was put at 1340 nM.

Regarding `CC(C)(C)OC(=O)N1CCC(N(C(=O)c2ncn(-c3ccc(C#N)cc3F)n2)C2CC2)CC1` [Example 49, 4-{[1-(4-Cyano-2-fluoro-phenyl)-1H-[1,2,4]triazole-3-carbonyl]-cyclopropyl-amino}-piperidine-1-carboxylic acid tert-butyl ester], the midpoint of the response, the EC50, lay at 149 nM.

With `CC(C)(C)OC(=O)N1CCC(N(C(=O)c2ncn(-c3ccc(C#N)cc3)n2)C2CC2)CC1` [Example 50, 4-{[1-(4-Cyano-phenyl)-1H-[1,2,4]triazole-3-carbonyl]-cyclopropyl-amino}-piperidine-1-carboxylic acid tert-butyl ester], the EC50 was determined as 505 nM. Compared with the last compound, the EC50 is about 3.4-fold higher.

In the case of `CC(C)OC(=O)N1CCC(N(C(=O)c2cnc(-n3ccnc3)nc2)C2CC2)CC1` [Example 51, 4-[Cyclopropyl-(2-imidazol-1-yl-pyrimidine-5-carbonyl)-amino]-piperidine-1-carboxylic acid isopropyl ester], the EC50 came out at 140 nM.
